Tested on: PKC mediated IL-2 production
Test: IL-2 ELISA, human primary T cell, anti CD3+CD28+
Type: cell-based
Details: human primary T cells stimulated with αCD3 and αCD28, 24 hours
Outline: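 IL-2 was quantified by ELISA in 24 h supernatants from primary human T cells given a 1 h compound pre-treatment at 37° C. These cells had been expanded from blood mononuclear cells on αCD3/αCD28 with IL-2, and the IL-2 was removed by washing. Stimulation used plate-bound αCD3 ([…]) plus αCD28 (5 μg/ml); the counter assay used PMA (0.5 ng/ml) with ionomycin (0.1 uM) instead.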

EC50 (Homo sapiens, T-cell, 24 h)	SMILES	also measured
100 to 500 nM	CN(C)CCOc1cc(F)c(Nc2ncc(F)c(N[C@@H]3C[C@@H]4CCCN4C(C)(C)C3)n2)cc1-n1nnn(C)c1=O [Compound 192, 1-(2-(2-(dimethylamino)ethoxy)-5-((4-(((7R,8aS)-5,5-dimethyloctahydroindolizin-7-yl)amino)-5-fluoropyrimidin-2-yl)amino)-4-fluorophenyl)-4-methyl-1,4-dihydro-5H-tetrazol-5-one]	
100 to 500 nM	CC1(C)CC[C@H]2C[C@@H](Nc3nc(Nc4ccc(OC5CC(O)C5)c(OC(F)F)c4)ncc3F)CCN21 (stereo partly drawn) [Compound 306, 3-(2-(Difluoromethoxy)-4-((4-(((7S,8aS)-3,3-dimethyloctahydroindolizin-7-yl)amino)-5-fluoropyrimidin-2-yl)amino)phenoxy)cyclobutan-1-ol]	
< 100 nM	CC1(C)C[C@H](Nc2nc(Nc3ccc(F)c(-n4nnnc4C4CC4)c3)ncc2F)C[C@@H]2CCCN21 [Compound 143, N2-(3-(5-cyclopropyl-1H-tetrazol-1-yl)-4-fluorophenyl)-N4-((7R,8aS)-5,5-dimethyloctahydroindolizin-7-yl)-5-fluoropyrimidine-2,4-diamine]	
1000 to 10000 nM	Cn1nnn(-c2cc(Nc3ncc(F)c(N[C@@H]4C[C@@H]5CCCN5C(C)(C)C4)n3)c(F)cc2OCC2COCCO2)c1=O (stereo partly drawn) [Compound 169, 1-(2-((1,4-dioxan-2-yl)methoxy)-5-((4-(((7R,8aS)-5,5-dimethyloctahydroindolizin-7-yl)amino)-5-fluoropyrimidin-2-yl)amino)-4-fluorophenyl)-4-methyl-1,4-dihydro-5H-tetrazol-5-one]	
500 to 1000 nM	CC1(C)CC[C@H]2C[C@@H](Nc3nc(Nc4ccc(N5CC(O)C5)c(OC(F)F)c4)ncc3F)CCN21 [Compound 308, 1-(2-(Difluoromethoxy)-4-((4-(((7S,8aS)-3,3-dimethyloctahydroindolizin-7-yl)amino)-5-fluoropyrimidin-2-yl)amino)phenyl)azetidin-3-ol]	
500 to 1000 nM	COc1cc(-n2nnnc2C)c(F)c(Nc2ncc(F)c(N[C@@H]3C[C@@H]4CCCN4C(C)(C)C3)n2)c1F [Compound 243, 5-fluoro-N2-(2,6-difluoro-3-methoxy-5-(5-methyl-1H-tetrazol-1-yl)phenyl)-N4-((7R,8aS)-octahydro-5,5-dimethylindolizin-7-yl)pyrimidine-2,4-diamine]	
< 100 nM	CC1(C)C[C@H](Nc2nc(Nc3cccc(-n4nnnc4SCCO)c3)ncc2F)C[C@@H]2CCCN21 [Compound 266, 2-(1-(3-(4-((7R,8aS)-octahydro-5,5-dimethylindolizin-7-ylamino)-5-fluoropyrimidin-2-ylamino)phenyl)-1H-tetrazol-5-ylthio)ethanol]	
< 100 nM	CC(O)COc1cc(F)c(Nc2ncc(Cl)c(N[C@@H]3C[C@@H]4CCCN4C(C)(C)C3)n2)cc1-n1nnn(C)c1=O (stereo partly drawn) [Compound 236, 1-(5-((5-chloro-4-(((7R,8aS)-5,5-dimethyloctahydroindolizin-7-yl)amino)pyrimidin-2-yl)amino)-4-fluoro-2-(2-hydroxypropoxy)phenyl)-4-methyl-1,4-dihydro-5H-tetrazol-5-one]	
500 to 1000 nM	COCC1(COC)Oc2ccc(Nc3ncc(F)c(N[C@@H]4C[C@@H]5CCCN5C(C)(C)C4)n3)cc2-n2c1nn(C)c2=O [Compound 296, 5-fluoro-N2-(1H-2,4-dihydron-2-methyl-4,4-di(methoxymethyl)[1,2,4]triazolo[3,4-c][1,4]benzoxazin-1-one-8-yl)-N4-((7R,8aS)-octahydro-5,5-dimethylindolizin-7-yl)pyrimidine-2,4-diamine]	
100 to 500 nM	CC1(C)C[C@H](Nc2nc(Nc3ccc(OCC(O)CO)c(-n4cnnn4)c3)ncc2F)C[C@@H]2CCCN21 (stereo partly drawn) [Compound 214, 3-(4-((4-(((7R,8aS)-5,5-dimethyloctahydroindolizin-7-yl)amino)-5-fluoropyrimidin-2-yl)amino)-2-(1H-tetrazol-1-yl)phenoxy)propane-1,2-diol]	
1000 to 10000 nM	CNc1nc2cc(Nc3ncc(F)c(N[C@@H]4C[C@@H]5CCCN5C(C)(C)C4)n3)c(F)cc2o1 [Compound 253, N5-(4-((7R,8aS)-octahydro-5,5-dimethylindolizin-7-ylamino)-5-fluoropyrimidin-2-yl)-6-fluoro-N2-methylbenzo[d]oxazole-2,5-diamine]	
< 100 nM	Cn1nnn(-c2cc(Nc3ncc(Cl)c(N[C@@H]4C[C@@H]5CCCN5C(C)(C)C4)n3)c(F)cc2OCCO)c1=O [Compound 237, 1-(5-((5-chloro-4-(((7R,8aS)-5,5-dimethyloctahydroindolizin-7-yl)amino)pyrimidin-2-yl)amino)-4-fluoro-2-(2-hydroxyethoxy)phenyl)-4-methyl-1,4-dihydro-5H-tetrazol-5-one]	

The remaining lines, values behind:

SMILES	EC50 (Homo sapiens, T-cell, 24 h)	also measured
Cn1nnn(-c2cc(Nc3ncc(F)c(NC4CCN5C(CCC5(C)C)C4)n3)c(F)cc2C2CC2)c1=O (racemic) [Compound 26, 1-(5-(5-fluoro-4-(octahydro-3,3-dimethylindolizin-7-ylamino)pyrimidin-2-ylamino)-2-cyclopropyl-4-fluorophenyl)-4-methyl-1H-tetrazol-5(4H)-one]	1000 to 10000 nM	
CC1(C)C[C@H](N(CC(O)CO)c2nc(Nc3ccc(OCC(O)CO)c(C#N)c3)ncc2F)C[C@@H]2CCCN21 (stereo partly drawn) [Compound 211]		EC50 (T-cell): 1000 to 10000 nM
Cc1nnnn1-c1ccc(F)c(Nc2ncc(F)c(N[C@@H]3C[C@@H]4CCCN4C(C)(C)C3)n2)c1 [Compound 142, N4-((7R,8aS)-5,5-dimethyloctahydroindolizin-7-yl)-5-fluoro-N2-(2-fluoro-5-(5-methyl-1H-tetrazol-1-yl)phenyl)pyrimidine-2,4-diamine]	< 100 nM	
Cn1nnn(-c2cc(Nc3ncc(F)c(NC4CCN5CCCC5C4)n3)c(F)cc2C2CC2)c1=O (stereo not drawn) [Compound 29]		EC50: 1000 to 10000 nM
Cn1nnn(-c2cc(Nc3ncc(F)c(N[C@@H]4C[C@@H]5CCCN5C(C)(C)C4)n3)ccc2N2CCN(C3COC3)CC2)c1=O [Compound 117, 1-(5-((4-(((7R,8aS)-5,5-dimethyloctahydroindolizin-7-yl)amino)-5-fluoropyrimidin-2-yl)amino)-2-(4-(oxetan-3-yl)piperazin-1-yl)phenyl)-4-methyl-1,4-dihydro-5H-tetrazol-5-one]	1000 to 10000 nM	
CC1(C)C[C@H](Nc2nc(Nc3ccc(N4CCN(S(C)(=O)=O)CC4)c(C#N)c3)ncc2F)C[C@@H]2CCCN21 [Compound 103, 5-((4-(((7R,8aS)-5,5-Dimethyloctahydroindolizin-7-yl)amino)-5-fluoropyrimidin-2-yl)amino)-2-(4-(methylsulfonyl)piperazin-1-yl)benzonitrile]	100 to 500 nM	
CC1(C)C[C@H](Nc2nc(Nc3ccc4c(c3)-n3nnnc3C3(CCOCC3)O4)ncc2F)C[C@@H]2CCCN21 [Compound 137, N4-((7R,8aS)-5,5-dimethyloctahydroindolizin-7-yl)-5-fluoro-N2-(2′,3′,5′,6′-tetrahydrospiro[benzo[b]tetrazolo[1,5-d][1,4]oxazine-4,4′-pyran]-8-yl)pyrimidine-2,4-diamine]	< 100 nM	
CC1(C)C[C@H](Nc2nc(Nc3ccc(O[C@H]4CCNC[C@@H]4F)c(Cl)c3)ncc2F)C[C@@H]2CCCN21 [Compound 123]	< 100 nM	
CC1(C)C[C@H](Nc2nc(Nc3ccc(OC4CCN(C5COC5)CC4)c(C(F)(F)F)c3)ncc2F)C[C@@H]2CCCN21 [Compound 120]	100 to 500 nM	

Reference: patent US9682976B2, “Protein kinase C inhibitors and uses thereof” (Rigel Pharmaceuticals, Inc., priority 2012, dated 2017)
